Measurements: patent US20230303506A1, “COMPOSITIONS AND METHODS FOR THE PREVENTION AND/OR TREATMENT OF MITOCHONDRIAL DISEASE, INCLUDING FRIEDREICH'S ATAXIA” (Stealth BioTherapeutics Inc., priority 2019, published 2023)
“Also recorded” adds a separate entry of the source. Where two headings read alike, the source gives them in different places.

Key:
GM03665 cells = test: RSL3 Toxicity Assay (RSL3 Assay); type: cell-based, human; settings: for EC50: 2 μM RSL3, 24 hours, MTT
Description: In brief, GM03665 cells (Coriell Institute) were seeded in 96-well plates (Sarstedt) in DMEM cell culture media containing 10% Fetal Bovine serum and 1% Penicillin-Streptomycin (Pen-Strep) antibiotic mix at the amount of 2×10^4/mL (100 μL or 2×10^3 cells per well). Cells were left to rest overnight at 37° C. in a humidified atmosphere with 5% CO2 to allow attachment of the cells to the culture plate. Test compounds were prepared as DMSO stocks (10 mM) and were serially diluted in cell culture media to obtain 2× working solutions. Cell media was discarded and replaced by 50 μL of test compound solutions or cell media with vehicle for control wells. Within 15 minutes, 2× working solution (4 μM) of 1S,3R-RSL3 (CAS #1219810-16-8, Sigma-Aldrich) (diluted from 5 mM DMSO stock in cell culture media) was added. Final reaction volume was 100 μL and final DMSO concentration in reaction was kept below 0.2% (v/v) and equal in all wells. Final RSL3 concentration was 2 μM and test compound final concentrations in reaction were up to 1000 nM. After 24 hours of incubation cell viability was assessed by MTT test. MTT (Sigma-Aldrich) solution 1 mg/mL in 1×PBS (pH=7,4) was prepared 1 hour before the assay and filtered through Filtropur S 0.2 filters (Sarstedt). Cell media with test compounds was discarded and 100 μL of MTT solution was added to cells. The plates were incubated for 2 hours at +37° C. Thereafter, the MTT solution was removed and 100 μL of isopropanol was added to dissolve sediment. Absorption at 570 and 650 nm was measured using Hidex Sense microplate reader.

[1] = system: HepG2 human hepatocarcinoma cells; test: Rotenone ATP Assay (Complex I Assay); type: cell-based; settings: for Complex I by-pass activity / restoring ATP production, in words: summary of rotenone assays; for EC50: HepG2, 50 micromolar rotenone, 60 minutes
Description: This assay has been adapted from Haefeli R H, Erb M, Gemperli A C, Robay D, Courdier Fruh I, et al. (2011) NQO1-Dependent Redox Cycling of Idebenone: Effects on Cellular Redox Potential and Energy Levels. PLoS ONE 6(3): e17963. HepG2 human hepatocarcinoma cells were co-incubated with the electron transport chain Complex I toxin rotenone +/− compounds of interest and the corresponding effect on ATP synthesis was measured with a bioluminescent substrate.
In brief, HepG2 cells were plated at 25,000 cells per well in low glucose (1 gram/Liter) DMEM medium+10% fetal calf serum and incubated for 24 hours. The following day, the media was decanted and subsequently replaced with glucose free/serum free DMEM which has been supplemented with 50 micromolar rotenone and compound of interest. Serial dilutions of compound were prepared in 3× dilutions beginning at 25 micromolar. The cells were incubated for 60 minutes in a humidified tissue culture incubator. Following incubation, ATP levels were quantified via bioluminescent assay (Promega […] Glo Assay kit) and readings were captured on a standard microplate reader.
ATP bioluminescence is plotted versus the log of compound of interest and data were used to generate EC50 values. Curve fitting was performed using a sigmoidal dose response curve fit function (GraphPad Prism software).
Robustness of curve fit was assessed as a quality control measure, with an R squared value of at least 0.80 being required for a successful curve fit. Compounds of interest showing an increase in ATP bioluminescence relative to vehicle control were verified in an independent biological replicate of n=3 technical replicates per dose.
This assay is a direct measure of the ability of compounds of interest to restore ATP production under conditions of inhibition of Complex I of the mitochondrial electron transport chain. As the majority of ATP produced via the electron transport chain is thought to derive from Complex I activity, significant impairment in Complex I function has dire biological consequences. Of note, Complex I mutations are thought to drive pathophysiology in multiple mitochondrial diseases, including Leigh syndrome and Leber's Hereditary Optic Neuropathy (LHON), while diminished Complex I activity and the resultant attenuation of ATP production has been shown in neurodegenerative diseases, including Friedreich's Ataxia, Parkinson's Disease and Huntington's Disease.

lipoxygenase-15 enzyme = lipoxygenase-15 enzyme (Glycine max (Soybean) (Glycine hispida), UniProt P08170); test: Lipoxygenase-15 Assay (LO-15 Assay); settings: reduced form of compounds
[2] = system: frataxin deficient fibroblasts (GM03665); test: cells; type: cell-based
Nrf-2 = Nrf-2 Activation Assay (Nrf-2 Assay); type: cell-based, human; settings: for activation of Nrf-2 pathway, in words: FIG. 7; for Nrf-2 Assay: Table 7, 1 μM compound, 24 hours, qPCR of Nrf-2 responsive genes
Description: This assay was developed internally and was designed to determine if the novel test compounds disclosed herein active Nrf-2 and thereby promote resolution of inflammation by the mechanism believed to be responsible for the activity of omaveloxolone.
Briefly, GM03665 Friedreich Ataxia patient fibroblasts were grown in 12 Well Plates (TC Cell+F) (Sarstedt, Numbrecht Germany), at a density of […] in DMEM/F12 (Gibco, ThermoFisher Scientific, Waltham, MA, USA) cell media supplemented with 10% FBS and 1% Pen/Strep. Cells were left to rest overnight at 37° C. in a humidified atmosphere with 5% CO2 to allow attachment of the cells to the culture plate. Before continuing assay visual inspection of each well was done by light microscopy to detect any possible bacterial and fungal contamination. […] After incubation, cell media was removed and total RNA from the cells was isolated using E.Z.N.A.® Total RNA Kit I (Omega Bio-tek, Norcross, Georgia, USA) spin columns, and first-strand cDNA synthesis was carried out using a High Capacity cDNA Reverse Transcription Kit (Applied Biosystems™, Foster City, CA) following the manufacturer's instructions. qPCR analysis of gene expression was performed by mixing SYBR® Green Master Mix (Applied Biosystems™) with synthesized cDNA and forward and reverse primers. […] (60 cycles), and 95° C. for 60 seconds, followed by melt curve analysis at 72-95° C., 0.3° C./sec. The relative expression levels for each gene were calculated with the ΔΔCt method and normalized to the expression of REEP5 and SNRPD3 genes.

HepG2 cells = test: Rotenone Oxygraph Assay (high-resolution respirometry of intact HepG2 cells); type: cell-based, human; settings: Table 7; 1 μM rotenone, compound 10 μM
Description: The Oxygraph-2 k (O2k, OROBOROS INSTRUMENTS, Austria) was used for measurements of respiration of intact cells. The respirometry was performed in Dulbecco's Modified Eagle Medium (DMEM) high glucose without supplements. All experiments were performed at 37° C.
HepG2 cells (ATCC collection code HB-8065™) were cultured in 10 cm^2 culture dishes in DMEM high glucose medium supplemented with 10% fetal bovine serum (FBS) and 100 units/mL penicillin and 100 μg/mL streptomycin until approximately 90% confluence was reached. Immediately prior to performing the respirometric assay, the cells were washed with media without FBS, trypsinized and resuspended in DMEM high glucose without FBS.
The final concentration of intact cells in the O2k-chamber was 0.5·10^6/mL. After stabilization of respiration, the Complex I inhibitor, rotenone, at 1 μM final concentration was added to inhibit electron flux via Complex I. Then, compound to be tested was added at 10 μM final concentration, and the change in respiration rate of intact cells was monitored.

Molecule	activity in RSL3 assay (protection from RSL3 induced ferroptosis), in words (GM03665 cells)	activity in both the BSO Assay and the Rotenone ATP Assay, in words ([1]; BSO Assay and Rotenone ATP Assay taken together)	Complex I by-pass activity / restoring ATP production, in words [1]	activity in LO-15 assay, in words (lipoxygenase-15 enzyme)	activity in BSO assay (protection from BSO induced cell death), in words [2]	activation of Nrf-2 pathway, in words (Nrf-2)	Nrf-2 Assay (Nrf-2)	Rotenone Oxygraph Assay % Increase (HepG2 cells)	EC50 (GM03665 cells; Table 3, mean of at least three measurements, unit printed in Table 7, read-out: RSL3 Assay EC50, Mean)	EC50 (GM03665 cells; Table 7, read-out: RSL3 Assay EC50)	EC50 ([1]; ATP bioluminescence, read-out: EC50 Rotenone ATP Assay)	EC50 ([1]; Table 7, read-out: Rotenone ATP Assay EC50)	EC50 ([2]; Table 7, FA patient fibroblasts, 10 mM BSO, 48 hrs, MTT, read-out: BSO Assay)
CC1=C(C)C(=O)C(CC[C@](C)(O)CC/C=C(\C)CC/C=C(\C)CCC=C2COC2)=C(C)C1=O [Compound E, 2-((R,6E,10E)-3-hydroxy-3,7,11-trimethyl-14-(oxetan-3-ylidene)tetradeca-6,10-dien-1-yl)-3,5,6-trimethylcyclohexa-2,5-diene-1,4-dione]	active; also recorded: able to prevent ferroptotic cell death	possess both activities	active	outside of the range of the assay	able to prevent ferroptotic cell death; also recorded: active	do not activate	Inactive	37.9 +/− 10.7%	–	–	–	–	–
(R)-2-(3-hydroxy-3-methyl-4-(3-(trimethylsilyl)propoxy)butyl)-3,5,6-trimethylcyclohexa-2,5-diene-1,4-dione [Compound M]	active; also recorded: able to prevent ferroptotic cell death	–	active	best result; also recorded: effective inhibitors	able to prevent ferroptotic cell death; also recorded: active	do not activate	Inactive	56.6 +/− 11.3%	41.2 nM	41.2 nM	1000 to 3000 nM	1340 nM	61.2 nM
